Measured values reported in PMC6680510, “Benzotriazine Di-Oxide Prodrugs for Exploiting Hypoxia and Low Extracellular pH in Tumors” (Molecules, 2019).
Like-named read-outs stand apart in the source and are kept apart here.

Legend:
SiHa cells [1] = assay: IC50 assay (inhibition of proliferation, 4 h exposure, SRB); settings: SiHa
Description: Cells were seeded in 96-well plates (SiHa or FaDu 1500 cells/well, UT-SCC-74B 800 cells/well) in 100 μL. After incubation for 2 h, the drugs were added in 50 μL of the same titrated medium at 3× the final concentration to duplicate the wells. After a further 4 h the plates were checked for drug precipitation using a phase contrast microscope, then drugs were removed by aspirating and washing with the standard (pH 7.4) medium, then aspirating again and adding 150 μL of the medium. Cultures were then grown for 5 days before staining with sulphorhodamine B and measuring absorbance, with the estimation of IC50 values using 4-parameter logistic regression, as previously carried out.
The medium and plasticware was equilibrated in the chamber for 3 days prior to use. In the anoxia experiments, FaDu cells were plated in poly-L-lysine coated plates (Corning Cat # 356461) to improve attachment.
Cells were subsequently grown under standard cell culture conditions (oxia, pHe 7.4) for 5 days before staining with sulforhodamine B (SRB). […] (B) SN30000 (2). (C) BTO acid 4a. Values are means and errors are ranges for duplicate cultures in a single experiment. Fitted curves are 4-parameter logistic regressions. PCR = pH cytotoxicity ratio. ACR = anoxia cytotoxicity ratio. TMR = tumor microenvironment ratio.

[2] = Solubility in AlphaMEM + 5% FBS, pH 7.4; settings: culture medium (AlphaMEM + 5% FBS), pH 7.4, plasma or biological fluid
FaDu cells = assay: IC50 assay (inhibition of proliferation, 4 h exposure, SRB); type: cell-based
[3] = One-electron reduction potentials by pulse radiolysis; type: physicochemical; settings: pH 7.0, equilibrium with redox indicator shown in square brackets
Description: One-electron reduction potentials (E^0′) were determined from the redox equilibria with methylviologen, MV^2+, (E^0′ = […], [34]), dimethyldiquat, V21^2+, (E^0′ = […], [35]), or triquat, TQ^2+, (E^0′ = −548 ± 7 mV [34]). […] Substituting the 3-alkanoic sidechain with the 3-aminoalkanoic sidechain on the BTO 1,4-dioxide lowers the E^0′, as does the addition of the cyclopentane ring. The combined effect is seen for 10a, where the E^0′ value is −565 mV, which is expected to be too low for significant bioreduction under hypoxia.
Time-resolved optical absorption and kinetic studies were carried out using the University of Auckland’s 4 MeV linear accelerator, which has been previously described. The one-electron reduction potentials of the compounds (A) and couple E^0′(A/A^−), versus normal hydrogen electrode, were determined at pH 7.0 (2.5 mM phosphate) by establishing redox equilibria within 50 μs between three mixtures of one-electron reduced A and the viologen reference compounds, MV^2+, TQ^2+ and V21^2+. The determined equilibrium constants were used to calculate the ΔE values using the Nernst equation, correcting for ionic strength effects, as described in the literature.

SiHa cells [4] = tested on: SiHa cells
Description: In these experiments, cell pellets were collected by centrifugation and ^3H-mannitol was used as a cell-excluded marker to enable correction for the entrapped extracellular medium.
Log-phase cultures were dissociated with trypsin/EDTA, followed by the addition of the medium with DNAase I (Sigma DN-25) at 100 μg/mL for 5 min at 37 °C to minimize clumping. The cell pellets were collected by centrifugation and resuspended in αMEM with 5% FBS at pH 7.4 or 6.5 to 2 × 10^6 cells/mL. Samples (12 mL) were equilibrated with magnetic stirring at 37 °C under flowing humidified 5% CO2/air or N2 (50–100 mL/min), as previously described [86]. After equilibration for 60 min, the compounds were added in 50 μL of DMSO. The samples (5 mL) were withdrawn 5 and 60 min later, where the cell pellets were then collected by centrifugation and 4 mL of the supernatant was discarded. The pellets were resuspended in the remaining 1 mL, transferred to microcentrifuge tubes containing 7 μL ^3H-mannitol (740 GBq/mmol, American Radiolabeled Chemicals Inc., St. Louis, MO) as an extracellular marker, and then centrifuged (11,000g × 30s). The supernatant was removed and frozen at −80 °C (extracellular samples) and the tubes were centrifuged again, and any remaining medium was carefully removed. Ice-cold MeOH (80 μL) was added to the pellets which were disrupted by pipetting and stored at −80 °C (intracellular samples). When these were thawed for HPLC analysis (Section 4.12), the volume of extracellular water trapped in the pellets was determined by the scintillation counting (PerkinElmer Tri-Carb B2910TR Liquid Scintillation) of 25 μL of each extracellular and intracellular sample in 3 mL of Emulsifier-Safe™ scintillation cocktail (PerkinElmer). The extracellular volume in each intracellular sample was used to correct the intracellular drug concentration as previously described [87].
The samples were analyzed using an Agilent 1200 HPLC with a diode array absorbance detector and autosampler maintained at 4 °C (Agilent Technologies). The frozen samples were thawed, then centrifuged (11,000g × 5 min), and then extracellular samples were injected directly (typically 20 μL), while for the intracellular samples 30 μL was mixed 1:1 with αMEM and 50 μL was injected. […] All calibration curves were linear (R^2 > 0.999). The column was an Agilent ZORBAX Eclipse (XDB-C18, 5u, 2.1 × 150 mm, Agilent Technologies) with a flow rate of 0.4 mL/min. For SN30000 (2), the mobile phase was a mixture of 80% MeCN/water v/v (A), and a 45 mM formate buffer at a pH 4.5, eluting with a linear gradient of 5–100% A over 18 min. The same method was used for the BTO acids, except for 4a, where the aqueous mobile phase pH was reduced to 3.5.
Values are mean and SEM for 3 replicates. ND: Not detected.

[5] = Homo sapiens, 4 h, read-out: Anoxic IC50, SiHa, pHe 6.5, 4 h, anoxic
[6] = Homo sapiens, 4 h, read-out: Anoxic IC50, SiHa, pHe 7.4, 4 h, anoxic
[7] = Homo sapiens, 4 h, read-out: Oxic IC50, SiHa, pHe 6.5, 4 h, oxic
[8] = Homo sapiens, 4 h, read-out: Oxic IC50, SiHa, pHe 7.4, 4 h, oxic
[9] = Homo sapiens, 4 h, pHe 6.5, 4 h, anoxic, read-out: Anoxic IC50
[10] = Homo sapiens, 4 h, pHe 6.5, 4 h, oxic, read-out: Oxic IC50
[11] = Homo sapiens, 4 h, pHe 7.4, 4 h, anoxic, read-out: Anoxic IC50
[12] = Homo sapiens, 4 h, pHe 7.4, 4 h, oxic, read-out: Oxic IC50

Row | melting point | solubility ([2]; thermodynamic from solid) | Compound | IC50 (SiHa cells [1]; [5]) | IC50 (SiHa cells [1]; [6]) | IC50 (SiHa cells [1]; [7]) | IC50 (SiHa cells [1]; [8]) | TMR (overall TME ratio = oxic IC50 pHe 7.4/anoxic IC50 pHe 6.5) (SiHa cells [1]) | PCR Anoxic (IC50 at pHe 7.4/IC50 at pHe 6.5) (SiHa cells [1]; anoxic) | PCR oxic (IC50 at pHe 7.4/IC50 at pHe 6.5) (SiHa cells [1]; oxic) | ACR (anoxic cytotoxicity ratio = oxic IC50/anoxic IC50) (SiHa cells [1]; pHe 6.5) | ACR (anoxic cytotoxicity ratio = oxic IC50/anoxic IC50) (SiHa cells [1]; pHe 7.4) | TMR (oxic IC50 pHe 7.4/anoxic IC50 pHe 6.5) (FaDu cells) | IC50 (FaDu cells; [9]) | IC50 (FaDu cells; [10]) | IC50 (FaDu cells; [11]) | IC50 (FaDu cells; [12]) | PCR Anoxic (IC50 at pHe 7.4/IC50 at pHe 6.5) (FaDu cells; anoxic) | ACR (oxic IC50/anoxic IC50) (FaDu cells; pHe 6.5) | ACR (oxic IC50/anoxic IC50) (FaDu cells; pHe 7.4) | other results
1 | 170 to 171 °C | 280 µM | COC(=O)CCc1n[n+]([O-])c2cc3c(cc2[n+]1[O-])CCC3 [Compound 7b, 3-(3-Methoxy-3-oxopropyl)-7,8-dihydro-6H-indeno[5,6-e][1,2,4]triazine 1,4-Dioxide] | 15.1 ± 3.1 µM | 7.3 ± 1.6 µM | 195 ± 22 µM | > 200 µM | >13 | 0.48 ± 0.15 | >1 | 13.0 ± 3.0 | >27 | >10 | 20 ± 5.4 µM | 157 ± 28 µM | 11.5 ± 2.2 µM | > 200 µM | 0.58 ± 0.19 | 7.84 ± 2.56 | >17 | PCR oxic (IC50 at pHe 7.4/IC50 at pHe 6.5) (FaDu cells; oxic): >1.2
2 | 171 to 178 °C | 70 µM | COC(=O)CNc1n[n+]([O-])c2cc3c(cc2[n+]1[O-])CCC3 [Compound 9b, 3-((2-Methoxy-2-oxoethyl)amino)-7,8-dihydro-6H-indeno[5,6-e][1,2,4]triazine 1,4-dioxide] | 10.9 ± 1.42 µM | 8.08 ± 2.23 µM | 42.2 ± 5.7 µM | > 53 µM | >4.6 | 0.74 ± 0.23 | >1.2 | 3.87 ±0.73 | >6.5 | >1.4 | 37.7 ± 8 µM | > 53 µM | 46.9 ± 3 µM | > 53 µM | 1.24 ± 0.28 | >1 | >1 | –
3 | 173 to 175 °C (dec.) | – | Cc1ccc2c(c1)[n+]([O-])c(CCC(=O)O)n[n+]2[O-] [Compound 6a, 3-(2-Carboxyethyl)-6-methylbenzo[e][1,2,4]triazine 1,4-Dioxide] | 364 ± 47 µM | 1180 ± 190 µM | > 1000 µM | > 1000 µM | >2.7 | 3.24 ± 0.67 | – | >2.7 | – | >5 | 205 ± 25 µM | > 1000 µM | > 1000 µM | > 1000 µM | >5 | >5 | – | solubility ([2]; kinetic from dmso stock): > 960 µM
4 | – | – | 3-((2-Carboxyethyl)amino)-7,8-dihydro-6H-indeno[5,6-e][1,2,4]triazine 1,4-Dioxide [Compound 11a] | – | – | – | – | 15.9 ± 1.6 | 4.94 ± 1.14 | 4.18 ± 0.21 | – | – | >1 | – | – | – | – | >1 | > 1 | – | IC50 (SiHa cells [1]; read-out: Anoxic IC50, pHe 6.5, 4 h, anoxic): 145 ± 13 µM; IC50 (SiHa cells [1]; read-out: Anoxic IC50, pHe 7.4, 4 h, anoxic): 714 ± 152 µM; IC50 (SiHa cells [1]; read-out: Oxic IC50, pHe 6.5, 4 h, oxic): 551 ± 16 µM; IC50 (SiHa cells [1]; read-out: Oxic IC50, pHe 7.4, 4 h, oxic): 2300 ± 92 µM; E^0′ one-electron reduction potential [3]: −481 ± 10 [MV^2+] mV; Ci ratio (Ci at pHe 6.5/Ci at pHe 7.4) (SiHa cells [4]): 4.4 ± 1.2 fold; Ci/Ce, pHe 6.5 Obs 5 min (SiHa cells [4]): 0.17 ± 0.02; Ci/Ce, pHe 6.5 Obs 60 min (SiHa cells [4]): 0.29 ± 0.02; Ci/Ce, pHe 7.4 Obs 5 min (SiHa cells [4]): <0.1; Ci/Ce, pHe 7.4 Obs 60 min (SiHa cells [4]): <0.1; IC50 (FaDu cells; pHe 6.5, 4 h, anoxic, read-out: Anoxic IC50): 3810 ± 390 µM; IC50 (FaDu cells; pHe 6.5, 4 h, oxic, read-out: Oxic IC50): > 4000 µM; IC50 (FaDu cells; pHe 7.4, 4 h, anoxic, read-out: Anoxic IC50): > 4000 µM; IC50 (FaDu cells; pHe 7.4, 4 h, oxic, read-out: Oxic IC50): > 4000 µM
